Laboratory results as given in PubChem BioAssay AID1963973 (Molecular Pharmacology Branch, DTP, NCI, 2024).

Test system: 883617-216-R-J1-PDC tumor spheroids, viability
Assay: Anticancer human tumor 883617-216-R-J1-PDC patient-derived bladder carcinoma cell line growth inhibition [PI3K]
Conditions: spheroids with HUVEC and MSC; for IC50: curve of first compound; for viability, T/C: stronger effect = lower value
Outline: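 Spheroid viability read-out. Co-cultures contained the tumor line plus HUVEC and human MSCs. Each agent was paired with a PI3K inhibitor (inavolisib, alpelisib, duvelisib, copanlisib) across half-log dilutions starting at clinical Cmax, or at 10 microM when Cmax was unknown.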
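Further: spheroids exposed to agents for 7 days before the viability read.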

SMILES: C[C@@H](NC(=O)c1ncnc(N)c1Cl)c1ncc(C(=O)Nc2cc(C(F)(F)F)c(Cl)cn2)s1 + Cc1nc(NC(=O)N2CCCC2C(N)=O)sc1-c1ccnc(C(C)(C)C(F)(F)F)c1
- IC50 (second compound 0.0316 µM): > 10000 nM
- IC50 (second compound 0.1 µM): > 10000 nM
- IC50 (second compound 0.316 µM): 2000 nM
- IC50 (second compound 1 µM): < 31.6 nM
- IC50 (second compound 3.16 µM): < 31.6 nM
- IC50 (second compound 10 µM): < 31.6 nM
- viability, T/C (second compound 0.0316 µM, first compound 0.0316 µM): 89.3%
- viability, T/C (second compound 0.0316 µM, first compound 0.1 µM): 91.5%
- viability, T/C (second compound 0.0316 µM, first compound 0.316 µM): 94.9%
- viability, T/C (second compound 0.0316 µM, first compound 1 µM): 85.2%
- viability, T/C (second compound 0.0316 µM, first compound 3.16 µM): 82.1%
- viability, T/C (second compound 0.0316 µM, first compound 10 µM): 58%
- viability, T/C (second compound 0.1 µM, first compound 0.0316 µM): 69%
- viability, T/C (second compound 0.1 µM, first compound 0.1 µM): 74.2%
- viability, T/C (second compound 0.1 µM, first compound 0.316 µM): 73.3%
- viability, T/C (second compound 0.1 µM, first compound 1 µM): 73%
- viability, T/C (second compound 0.1 µM, first compound 3.16 µM): 75.1%
- viability, T/C (second compound 0.1 µM, first compound 10 µM): 57.7%
- viability, T/C (second compound 0.316 µM, first compound 0.0316 µM): 48.3%
- viability, T/C (second compound 0.316 µM, first compound 0.1 µM): 52.6%
- viability, T/C (second compound 0.316 µM, first compound 0.316 µM): 49.7%
- viability, T/C (second compound 0.316 µM, first compound 1 µM): 53.8%
- viability, T/C (second compound 0.316 µM, first compound 3.16 µM): 48.8%
- viability, T/C (second compound 0.316 µM, first compound 10 µM): 37.9%
- viability, T/C (second compound 1 µM, first compound 0.0316 µM): 29.6%
- viability, T/C (second compound 1 µM, first compound 0.1 µM): 33.4%
- viability, T/C (second compound 1 µM, first compound 0.316 µM): 29.2%
- viability, T/C (second compound 1 µM, first compound 1 µM): 33%
- viability, T/C (second compound 1 µM, first compound 3.16 µM): 24.9%
- viability, T/C (second compound 1 µM, first compound 10 µM): 24.4%
- viability, T/C (second compound 3.16 µM, first compound 0.0316 µM): 15.3%
- viability, T/C (second compound 3.16 µM, first compound 0.1 µM): 14.3%
- viability, T/C (second compound 3.16 µM, first compound 0.316 µM): 16.9%
- viability, T/C (second compound 3.16 µM, first compound 1 µM): 15.7%
- viability, T/C (second compound 3.16 µM, first compound 3.16 µM): 16.6%
- viability, T/C (second compound 3.16 µM, first compound 10 µM): 12.1%
- viability, T/C (second compound 10 µM, first compound 0.0316 µM): 9.78%
- viability, T/C (second compound 10 µM, first compound 0.1 µM): 8.18%
- viability, T/C (second compound 10 µM, first compound 0.316 µM): 11.9%
- viability, T/C (second compound 10 µM, first compound 1 µM): 8.65%
- viability, T/C (second compound 10 µM, first compound 3.16 µM): 7.27%
- viability, T/C (second compound 10 µM, first compound 10 µM): 3.76%
